PMC6851324, “Design and development of stapled transmembrane peptides that disrupt the activity of G-protein–coupled receptor oligomers” (The Journal of Biological Chemistry, 2019)
Like-named read-outs stand apart in the source and are kept apart here. Where a SMILES comes first, the peptide text is derived from it. Bridges are numbered along the chain shown (N, C = ends). Where no end group is shown, it is not given here. [ ]: non-standard residue; d: D form. S5 = C=CCCC[C@](C)(N)C(=O)O; Nle = CCCC[C@H](N)C(=O)O

Key:
CD helicity measurements = type: physicochemical; settings: 30–50 μM peptide in MilliQ water, 20 °C, 1-mm path length, three scans 195–260 nm, % helicity from molar ellipticity at 222 nm
Procedure: Figure 4. Biophysical analysis of stapled peptides. A, amino acid sequence alignment of the targeted TM regions and disrupting peptides. Cys residues are in the reduced state. Blue bridges indicate the stapled amino acid residues. […] Yields, purity, and MALDI-TOF data are shown for the stapled peptides and negative control. B, CD analysis of 30–50 μM peptides at 20 °C. For proteolytic stability studies, the peptide solution (55.5 μM for trypsin and chymotrypsin and 11.1 μM for serum) was incubated in the presence of 0.55 μg/ml trypsin from porcine pancreas (E), α-chymotrypsin (F), or mouse serum (G) at 37 °C for the indicated times (indicated on the x axis). Data are mean ± S.E. (error bars) (n = 3) percentage of intact peptide normalized to t = 0. Proteolytic half-lives and putative cleavage sites (predicted using the Expasy bioinformatics server's model with a 50% probability of cleavage) are indicated at the bottom of each panel. Positive correlation between helicity and half-life in trypsin/chymotrypsin (C) or serum (D) was determined by two-tailed Pearson's correlation test. […]
CD spectra were recorded on a Jasco J-810 with a total of three scans from 195 to 260 nm in 0.5-nm increments. […]
The Jasco J-810 generates the raw output in ellipticity and is measured in millidegrees. […] Once the precise concentration was confirmed, the molar ellipticity [θ] was calculated as follows. […]
Where c is the sample concentration (μM), l is the path length (mm), n is the number of peptide bonds (calculated as amino acid residues − 1), and θobs is the observed ellipticity (millidegrees). […]

[1] = biological target: T1, trypsin from porcine pancreas (Sus scrofa, UniProt P00761); assay: Proteolytic stability against trypsin; type: in vitro ADME; settings: pig
T1 construct: purchased Sigma; host or cells: porcine pancreas
T1 sequence (P00761 9-231): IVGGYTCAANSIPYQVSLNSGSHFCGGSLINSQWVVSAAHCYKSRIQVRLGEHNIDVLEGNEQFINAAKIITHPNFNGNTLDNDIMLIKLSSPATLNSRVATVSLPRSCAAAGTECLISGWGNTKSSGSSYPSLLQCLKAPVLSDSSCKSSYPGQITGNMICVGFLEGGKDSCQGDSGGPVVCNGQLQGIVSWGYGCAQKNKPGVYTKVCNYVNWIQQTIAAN
Procedure: Figure 4. Biophysical analysis of stapled peptides. A, amino acid sequence alignment of the targeted TM regions and disrupting peptides. Cys residues are in the reduced state. Blue bridges indicate the stapled amino acid residues. […] Yields, purity, and MALDI-TOF data are shown for the stapled peptides and negative control. B, CD analysis of 30–50 μM peptides at 20 °C. For proteolytic stability studies, the peptide solution (55.5 μM for trypsin and chymotrypsin and 11.1 μM for serum) was incubated in the presence of 0.55 μg/ml trypsin from porcine pancreas (E), α-chymotrypsin (F), or mouse serum (G) at 37 °C for the indicated times (indicated on the x axis). Data are mean ± S.E. (error bars) (n = 3) percentage of intact peptide normalized to t = 0. Proteolytic half-lives and putative cleavage sites (predicted using the Expasy bioinformatics server's model with a 50% probability of cleavage) are indicated at the bottom of each panel. Positive correlation between helicity and half-life in trypsin/chymotrypsin (C) or serum (D) was determined by two-tailed Pearson's correlation test. TEXT PRINTED IN THE PICTURE: (B) TM7-TAT: Ellipticity (%): 3.4 | (B) TM6-TAT: Ellipticity (%): 18.3 | (B) TM5-TAT: Ellipticity (%): 20.9 | (B) 8: Ellipticity (%): 58.3 | (B) 9: Ellipticity (%): 46.4 | (B) 10: Ellipticity (%): 36.8 | (B) 11: Ellipticity (%): 46 | (E) TM7-TAT: Half-life (min): 21; #Cleavage sites: 8 | (E) TM6-TAT: Half-life (min): 40; #Cleavage sites: 7 | (E) TM5-TAT: Half-life (min): 33; #Cleavage sites: 8 | (E) 8: Half-life (min): 307; #Cleavage sites: 0 | (E) 9: Half-life (min): 178; #Cleavage sites: 0 | (E) 10: Half-life (min): 75; #Cleavage sites: 6 | (E) 11: Half-life (min): 84; #Cleavage sites: 0 | (F) TM7-TAT: Half-life (min): 22; #Cleavage sites: 6 | (F) TM6-TAT: Half-life (min): 32; #Cleavage sites: 7 | (F) TM5-TAT: Half-life (min): 28; #Cleavage sites: 7 | (F) 8: Half-life (min): 425; #Cleavage sites: 4 | (F) 9: Half-life (min): 198; #Cleavage sites: 3 | (F) 10: Half-life (min): 63; #Cleavage sites: 2 | (F) 11: Half-life (min): 79; #Cleavage sites: 4 | (G) TM7-TAT: Half-life (hours): 0.46 | (G) TM6-TAT: Half-life (hours): 0.55 | (G) TM5-TAT: Half-life (hours): 0.81 | (G) 8: Half-life (hours): ≥18 | (G) 9: Half-life (hours): 14.7 | (G) 10: Half-life (hours): 11.7 | (G) 11: Half-life (hours): 5.3 DOUBTS OF THE COPYIST ABOUT THIS PICTURE: Panel A table (Yield, Rt, Purity, [M+H+] calc., [M+H+] Peak Found for 7-11) left out as synthesis and mass-spectrum characterisation data; uncertain whether [M+H+] calc. should count as a molecular weight
Dose–response curves were fitted using a four-parameter logistic nonlinear regression mode. Peptide stability data were fitted using a nonlinear regression mode for dissociation kinetics. All statistical tests, curve fitting, and graphing were performed using GraphPad Prism 8 (GraphPad Software, La Jolla, CA).
To 100 μl of peptide solution (100 μM, dissolved in ammonium bicarbonate buffer, pH 7.5), 60 μl of ammonium bicarbonate buffer (pH 7.5) was added, together with 20 μl of temperature-equilibrated (37 ± 1 °C) trypsin (5 μg/ml) from porcine pancreas (Sigma, 13,000–20,000 BAEE units/mg of protein). Peptides were incubated for 15, 30, 60, 120, 240, and 480 min, and then MeOH (HPLC Grade) + 0.05% TFA was added. The samples were then centrifuged (15,000 rpm), and the supernatant was analyzed, using Fmoc-Gly (10 μl, 0.2 mM) as an internal standard. The digestion at each time point was repeated three times to give the average values along with S.D. The amount of intact peptide that remained in the mixture was quantified by RP-HPLC. The experiment was repeated twice on different days.

5-HT2AR–CB1R heteromers = tested on: 5-HT2AR–CB1R heteromers; design: method as in 2 sources, ref 16 = [16]; PMID 26158621; doi:10.1371/journal.pbio.1002194; 16. Viñals X. , Moreno E. , Lanfumey L. , Cordomí A. , Pastor A. , de La Torre R. , Gasperini P. , Navarro G. , Howell L. A. , Pardo L. , Lluís C. , Canela E. I. , McCormick P. J. , Maldonado R. , and ||| ref 4, unpublished observations; settings: synthetic TM-mimicking peptides fused to HIV-TAT; cited from earlier work
[2] = isolated enzyme trypsin, 55.5 μM peptide, 0.55 μg/ml trypsin from porcine pancreas, ammonium bicarbonate buffer pH 7.5, 37 °C, 15–480 min, intact peptide by RP-HPLC (Fmoc-Gly internal standard), n = 3, nonlinear regression fit, read-out: Half-life (min), trypsin

Compound	Ellipticity (%) (helicity by CD) (CD helicity measurements)	half-life at 55.5 μM ([1]; trypsin from porcine pancreas, pH 7.5, trypsin 0.55 μg/ml, 37 °C, pH 7.5, approximate value of running text, read-out: half-life in trypsin as stated in text (converted))	half-life at 55.5 μM ([1]; 55.5 μM peptide, 0.55 μg/ml trypsin from porcine pancreas, ammonium bicarbonate buffer pH 7.5, 37 °C, 15–480 min, intact peptide by RP-HPLC (Fmoc-Gly internal standard), n = 3, nonlinear regression fit, read-out: Half-life (min), trypsin)	half-life at 55.5 μM ([1]; isolated enzyme trypsin, pH 7.5, Half-life (min), trypsin)	disruption of 5-HT2AR–CB1R heteromers (previous studies) (5-HT2AR–CB1R heteromers)	Ellipticity (%) (helicity by CD) (CD helicity measurements; listed as CB1 TM5-TAT)	half-life at 55.5 μM [1, 2]
CCCC[C@H](NC(=O)[C@]1(C)CCC/C=C\CCC[C@](C)(NC(=O)[C@H](Cc2ccccc2)NC(=O)[C@H](CC(C)C)NC(=O)[C@H](CC(C)C)NC(=O)[C@H](CC(C)C)NC(=O)[C@@H](N)C(C)C)C(=O)N[C@@H](C(C)C)C(=O)N[C@@H](Cc2ccc(O)cc2)C(=O)N[C@@H](C)C(=O)N1)C(=O)N[C@@H](Cc1ccc(O)cc1)C(=O)N[C@H](C(=O)N[C@@H](CC(C)C)C(=O)N[C@@H](Cc1c[nH]c2ccccc12)C(N)=O)[C@@H](C)CC [Peptide 8] (H-VLLLF[S5]VYA[S5][Nle]YILW-NH2; staple (Z) 6-10)	58.3%	~300 min	307 min				
C=CCCC[C@](C)(NC(=O)[C@H](Cc1ccc(O)cc1)NC(=O)[C@@H](N)C(C)C)C(=O)N[C@@H](Cc1ccc(O)cc1)C(=O)N[C@@H](CCCC)C(=O)N[C@@](C)(CCCC=C)C(=O)N[C@H](C(=O)N[C@@H](CC(C)C)C(=O)N[C@@H](Cc1c[nH]c2ccccc12)C(N)=O)[C@@H](C)CC [Peptide 11] (H-VY[S5]Y[Nle][S5]ILW-NH2)	46.0%			84 min			
ETYLMFWIGVTSVLLLFIVYAYMYILWGRKKRRQRRR [TM5-TAT, reference compound]					selectively disrupted	< 20%	33 min
GRKKRRQRRRKTLVLILVVLIICWGPLLAIMVY [TM6-TAT, reference compound]	< 20%				selectively disrupted		40 min
